The source made the active and inactive calls. The rule behind the calls is not given here.
Legend:
Assay in all cases: ABHD10 inhibitor selectivity across serine hydrolases, late-stage follow-up, selectivity assay for PME-1 inhibitor project, cell-based, LC-MS/MS, ABPP-SILAC (AID 588805)
[1] = test system: Dpp9; conditions: serine hydrolase panel, hits give low values
[2] = test system: Pme1; conditions: serine hydrolase panel, hits give low values
[3] = test system: Acot7; conditions: serine hydrolase panel, hits give low values
[4] = test system: Acot9; conditions: serine hydrolase panel, hits give low values
[5] = test system: Pla2g15; conditions: serine hydrolase panel, hits give low values
[6] = molecular target: Diacylglycerol lipase-beta (Mus musculus) (UniProt Q91WC9); conditions: serine hydrolase panel, Daglb, hits give low values
Diacylglycerol lipase-beta (Mus musculus), sequence (Q91WC9 whole entry, looked up): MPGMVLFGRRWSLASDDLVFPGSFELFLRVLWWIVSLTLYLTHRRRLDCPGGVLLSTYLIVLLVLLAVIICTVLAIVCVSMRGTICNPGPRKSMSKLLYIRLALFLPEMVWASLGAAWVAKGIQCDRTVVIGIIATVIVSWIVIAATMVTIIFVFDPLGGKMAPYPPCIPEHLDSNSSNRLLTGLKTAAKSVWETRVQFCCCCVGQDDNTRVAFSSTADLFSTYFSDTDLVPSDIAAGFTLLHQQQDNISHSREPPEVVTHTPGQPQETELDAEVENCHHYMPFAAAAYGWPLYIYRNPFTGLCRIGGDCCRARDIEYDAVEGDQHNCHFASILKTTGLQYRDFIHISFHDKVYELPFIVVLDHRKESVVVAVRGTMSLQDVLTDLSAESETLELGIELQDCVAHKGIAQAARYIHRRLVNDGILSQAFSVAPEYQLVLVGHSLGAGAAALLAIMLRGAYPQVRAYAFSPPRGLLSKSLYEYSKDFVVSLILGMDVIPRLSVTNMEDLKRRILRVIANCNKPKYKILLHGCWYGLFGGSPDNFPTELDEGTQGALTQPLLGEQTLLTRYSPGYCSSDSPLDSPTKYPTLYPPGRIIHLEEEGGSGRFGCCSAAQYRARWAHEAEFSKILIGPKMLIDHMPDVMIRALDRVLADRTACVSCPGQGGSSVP

[7] = test system: Pnpla7; conditions: serine hydrolase panel, hits give low values
[8] = test system: Lypla2; conditions: serine hydrolase panel, hits give low values
[9] = test system: Pnpla6; conditions: serine hydrolase panel, hits give low values
[10] = test system: Sec23ip; conditions: serine hydrolase panel, hits give low values
[11] = test system: Pla2g6; conditions: serine hydrolase panel, hits give low values
[12] = test system: Serhl; conditions: serine hydrolase panel, hits give low values
[13] = test system: Lipe; conditions: serine hydrolase panel, hits give low values
[14] = test system: Lyplal1; conditions: serine hydrolase panel, hits give low values
[15] = test system: Htra2; conditions: serine hydrolase panel, hits give low values
[16] = test system: Ache; conditions: serine hydrolase panel, hits give low values
[17] = test system: Abhd11; conditions: serine hydrolase panel, hits give low values
[18] = test system: Esd; conditions: serine hydrolase panel, hits give low values
[19] = test system: Abhd12; conditions: serine hydrolase panel, hits give low values
[20] = test system: Fasn; conditions: serine hydrolase panel, hits give low values
[21] = test system: Nceh1; conditions: serine hydrolase panel, hits give low values
[22] = molecular target: Prolyl endopeptidase (Mus musculus) (UniProt Q9QUR6); conditions: serine hydrolase panel, Prep, hits give low values
Prolyl endopeptidase (Mus musculus), sequence (Q9QUR6 whole entry, looked up): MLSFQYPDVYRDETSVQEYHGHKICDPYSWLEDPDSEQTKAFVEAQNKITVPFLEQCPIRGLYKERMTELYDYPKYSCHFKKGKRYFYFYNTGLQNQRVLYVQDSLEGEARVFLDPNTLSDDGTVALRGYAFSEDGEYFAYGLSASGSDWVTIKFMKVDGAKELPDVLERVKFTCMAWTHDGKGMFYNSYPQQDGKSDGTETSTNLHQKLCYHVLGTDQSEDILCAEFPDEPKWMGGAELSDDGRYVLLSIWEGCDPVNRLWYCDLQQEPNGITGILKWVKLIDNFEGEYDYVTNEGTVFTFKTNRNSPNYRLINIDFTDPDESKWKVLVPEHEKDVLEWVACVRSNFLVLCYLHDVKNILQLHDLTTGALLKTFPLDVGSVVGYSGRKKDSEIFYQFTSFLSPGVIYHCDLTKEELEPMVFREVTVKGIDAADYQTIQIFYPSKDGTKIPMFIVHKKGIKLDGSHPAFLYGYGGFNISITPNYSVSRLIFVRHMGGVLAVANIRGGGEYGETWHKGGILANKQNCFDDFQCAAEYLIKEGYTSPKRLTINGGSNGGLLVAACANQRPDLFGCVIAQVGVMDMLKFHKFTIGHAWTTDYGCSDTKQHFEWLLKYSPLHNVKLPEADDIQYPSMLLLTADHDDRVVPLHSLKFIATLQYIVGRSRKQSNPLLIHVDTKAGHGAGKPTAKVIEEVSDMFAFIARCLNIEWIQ

[23] = test system: Prepl; conditions: serine hydrolase panel, hits give low values
[24] = test system: Bat5; conditions: serine hydrolase panel, hits give low values
[25] = test system: Apeh; conditions: serine hydrolase panel, hits give low values
[26] = test system: Parl; conditions: serine hydrolase panel, hits give low values
[27] = test system: Pgap1; conditions: serine hydrolase panel, hits give low values
[28] = test system: Pafah1b3; conditions: serine hydrolase panel, hits give low values
[29] = test system: Abhd13; conditions: serine hydrolase panel, hits give low values
[30] = test system: Ctsa; conditions: serine hydrolase panel, hits give low values
[31] = test system: Pnpla8; conditions: serine hydrolase panel, hits give low values
[32] = test system: Fam108a; conditions: serine hydrolase panel, hits give low values
[33] = test system: Prcp; conditions: serine hydrolase panel, hits give low values
[34] = molecular target: Platelet-activating factor acetylhydrolase 2, cytoplasmic (Mus musculus) (UniProt Q8VDG7); conditions: serine hydrolase panel, Pafah2, hits give low values
Platelet-activating factor acetylhydrolase 2, cytoplasmic (Mus musculus), sequence (Q8VDG7 whole entry, looked up): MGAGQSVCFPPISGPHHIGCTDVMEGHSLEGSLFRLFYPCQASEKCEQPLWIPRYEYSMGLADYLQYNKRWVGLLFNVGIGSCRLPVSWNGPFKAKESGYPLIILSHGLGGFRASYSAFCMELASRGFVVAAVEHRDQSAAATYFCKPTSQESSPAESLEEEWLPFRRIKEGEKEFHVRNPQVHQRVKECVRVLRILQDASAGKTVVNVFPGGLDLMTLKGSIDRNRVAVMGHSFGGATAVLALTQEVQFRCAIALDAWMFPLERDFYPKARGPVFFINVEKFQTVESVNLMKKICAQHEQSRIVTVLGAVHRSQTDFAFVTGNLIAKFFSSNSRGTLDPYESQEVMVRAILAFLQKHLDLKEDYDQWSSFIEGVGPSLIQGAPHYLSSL

[35] = molecular target: Acyl-protein thioesterase 1 (Mus musculus) (UniProt P97823); conditions: serine hydrolase panel, Lypla1, hits give low values
Acyl-protein thioesterase 1 (Mus musculus), sequence (P97823 whole entry, looked up): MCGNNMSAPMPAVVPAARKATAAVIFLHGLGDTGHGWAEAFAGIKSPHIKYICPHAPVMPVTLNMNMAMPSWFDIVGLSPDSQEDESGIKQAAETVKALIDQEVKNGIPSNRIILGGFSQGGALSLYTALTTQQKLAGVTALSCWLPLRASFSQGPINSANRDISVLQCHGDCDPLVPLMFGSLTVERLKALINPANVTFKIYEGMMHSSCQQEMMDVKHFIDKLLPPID

[36] = molecular target: Palmitoyl-protein thioesterase ABHD10, mitochondrial (Mus musculus) (UniProt Q6PE15); conditions: serine hydrolase panel, hits give low values
Palmitoyl-protein thioesterase ABHD10, mitochondrial (Mus musculus), sequence (Q6PE15 whole entry, looked up): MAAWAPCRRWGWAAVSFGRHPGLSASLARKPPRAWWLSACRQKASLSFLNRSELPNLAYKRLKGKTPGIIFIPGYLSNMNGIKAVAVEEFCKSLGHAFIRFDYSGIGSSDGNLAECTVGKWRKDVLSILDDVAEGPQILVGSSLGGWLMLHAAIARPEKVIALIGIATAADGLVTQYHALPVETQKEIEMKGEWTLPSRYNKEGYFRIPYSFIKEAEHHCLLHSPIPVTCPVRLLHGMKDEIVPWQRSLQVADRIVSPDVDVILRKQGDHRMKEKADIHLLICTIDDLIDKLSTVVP

[37] = test system: Ddhd2; conditions: serine hydrolase panel, hits give low values
[38] = test system: Fam108b1; conditions: serine hydrolase panel, hits give low values
[39] = test system: Ppt2; conditions: serine hydrolase panel, hits give low values
[40] = test system: Dpp8; conditions: serine hydrolase panel, hits give low values
[41] = test system: Lactb; conditions: serine hydrolase panel, hits give low values
[42] = test system: Fam108c1; conditions: serine hydrolase panel, hits give low values
[43] = test system: Pafah1b2; conditions: serine hydrolase panel, hits give low values
[44] = test system: Iah1; conditions: serine hydrolase panel, hits give low values
[45] = test system: Dpp7; conditions: serine hydrolase panel, hits give low values
[46] = molecular target: Monoacylglycerol lipase ABHD6 (Mus musculus) (UniProt Q8R2Y0); conditions: serine hydrolase panel, hits give low values
Monoacylglycerol lipase ABHD6 (Mus musculus), sequence (Q8R2Y0 whole entry, looked up): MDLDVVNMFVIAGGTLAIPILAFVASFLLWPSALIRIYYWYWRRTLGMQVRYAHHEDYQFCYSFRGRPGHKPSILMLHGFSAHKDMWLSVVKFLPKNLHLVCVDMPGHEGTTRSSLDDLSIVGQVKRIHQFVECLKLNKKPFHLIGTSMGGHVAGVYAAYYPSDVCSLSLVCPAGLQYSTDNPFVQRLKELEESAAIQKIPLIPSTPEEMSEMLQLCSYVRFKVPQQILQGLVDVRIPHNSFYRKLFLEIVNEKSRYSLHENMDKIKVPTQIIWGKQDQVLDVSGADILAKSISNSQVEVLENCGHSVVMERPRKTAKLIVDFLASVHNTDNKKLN

[47] = test system: Acot2; conditions: serine hydrolase panel, hits give low values
[48] = test system: Qrsl1; conditions: serine hydrolase panel, hits give low values
[49] = test system: Faah; conditions: serine hydrolase panel, hits give low values
[50] = test system: Rbbp9; conditions: serine hydrolase panel, hits give low values

Which SILAC ratio (treated/control) [1] does the source give for `CC[C@@]1(c2ccc(C)cc2)C(=O)N(C(=O)OC(C)C)N1C(=O)OC(C)C` here?
Its SILAC ratio (treated/control) is 1.08 (inactive).

And the SILAC ratio (treated/control) [2]?
The SILAC ratio (treated/control) was 1.06 (inactive).

And the SILAC ratio (treated/control) [3]?
The SILAC ratio (treated/control) was 1.05 (inactive).

And the SILAC ratio (treated/control) [4]?
Its SILAC ratio (treated/control) is 1.1 (inactive).

And the SILAC ratio (treated/control) [5]?
Its SILAC ratio (treated/control) is 1 (inactive).

What about the SILAC ratio (treated/control) [6] of the same compound?
Its SILAC ratio (treated/control) is 0.96 (inactive).

What about the SILAC ratio (treated/control) [7] of the same compound?
The SILAC ratio (treated/control) was 1.01 (inactive).

What about the SILAC ratio (treated/control) [8] of the same compound?
Its SILAC ratio (treated/control) is 1.07 (inactive).

And the SILAC ratio (treated/control) [9]?
The SILAC ratio (treated/control) was 1.32 (inactive).

What about the SILAC ratio (treated/control) [10] of the same compound?
The SILAC ratio (treated/control) was 1.17 (inactive).

What about the SILAC ratio (treated/control) [11] of the same compound?
The SILAC ratio (treated/control) was 1.06 (inactive).

What about the SILAC ratio (treated/control) [12] of the same compound?
Its SILAC ratio (treated/control) is 0.9 (inactive).

And the SILAC ratio (treated/control) [13]?
The SILAC ratio (treated/control) was 1.13 (inactive).

What about the SILAC ratio (treated/control) [14] of the same compound?
The SILAC ratio (treated/control) was 1.06 (inactive).

And the SILAC ratio (treated/control) [15]?
The SILAC ratio (treated/control) was 0.98 (inactive).

And the SILAC ratio (treated/control) [16]?
Its SILAC ratio (treated/control) is 0.9 (inactive).

And the SILAC ratio (treated/control) [17]?
The SILAC ratio (treated/control) was 1 (inactive).

What about the SILAC ratio (treated/control) [18] of the same compound?
Its SILAC ratio (treated/control) is 1.04 (inactive).

What about the SILAC ratio (treated/control) [19] of the same compound?
The SILAC ratio (treated/control) was 0.9 (inactive).

What about the SILAC ratio (treated/control) [20] of the same compound?
The SILAC ratio (treated/control) was 1.1 (inactive).

And the SILAC ratio (treated/control) [21]?
The SILAC ratio (treated/control) was 1.03 (inactive).

What about the SILAC ratio (treated/control) [22] of the same compound?
Its SILAC ratio (treated/control) is 1.01 (inactive).

What about the SILAC ratio (treated/control) [23] of the same compound?
The SILAC ratio (treated/control) was 1.05 (inactive).

And the SILAC ratio (treated/control) [24]?
The SILAC ratio (treated/control) was 1.02 (inactive).

And the SILAC ratio (treated/control) [25]?
The SILAC ratio (treated/control) was 1.07 (inactive).

What about the SILAC ratio (treated/control) [26] of the same compound?
Its SILAC ratio (treated/control) is 0.96 (inactive).

What about the SILAC ratio (treated/control) [27] of the same compound?
The SILAC ratio (treated/control) was 0.92 (inactive).

And the SILAC ratio (treated/control) [28]?
Its SILAC ratio (treated/control) is 1.06 (inactive).

What about the SILAC ratio (treated/control) [29] of the same compound?
The SILAC ratio (treated/control) was 0.84 (inactive).

And the SILAC ratio (treated/control) [30]?
The SILAC ratio (treated/control) was 0.81 (inactive).

And the SILAC ratio (treated/control) [31]?
Its SILAC ratio (treated/control) is 0.97 (inactive).

What about the SILAC ratio (treated/control) [32] of the same compound?
Its SILAC ratio (treated/control) is 1.16 (inactive).

And the SILAC ratio (treated/control) [33]?
The SILAC ratio (treated/control) was 0.94 (inactive).

What about the SILAC ratio (treated/control) [34] of the same compound?
Its SILAC ratio (treated/control) is 1.06 (inactive).

And the SILAC ratio (treated/control) [35]?
Its SILAC ratio (treated/control) is 1.14 (inactive).

And the SILAC ratio (treated/control) [36]?
The SILAC ratio (treated/control) was 0.02.

What about the SILAC ratio (treated/control) [37] of the same compound?
Its SILAC ratio (treated/control) is 0.99 (inactive).

What about the SILAC ratio (treated/control) [38] of the same compound?
The SILAC ratio (treated/control) was 1.05 (inactive).

And the SILAC ratio (treated/control) [39]?
Its SILAC ratio (treated/control) is 1.04 (inactive).

And the SILAC ratio (treated/control) [40]?
Its SILAC ratio (treated/control) is 1.48 (inactive).

And the SILAC ratio (treated/control) [41]?
Its SILAC ratio (treated/control) is 0.85 (inactive).

And the SILAC ratio (treated/control) [42]?
Its SILAC ratio (treated/control) is 0.93 (inactive).

What about the SILAC ratio (treated/control) [43] of the same compound?
Its SILAC ratio (treated/control) is 1.06 (inactive).

What about the SILAC ratio (treated/control) [44] of the same compound?
Its SILAC ratio (treated/control) is 0.95 (inactive).

What about the SILAC ratio (treated/control) [45] of the same compound?
Its SILAC ratio (treated/control) is 0.97 (inactive).

And the SILAC ratio (treated/control) [46]?
The SILAC ratio (treated/control) was 0.87 (inactive).

What about the SILAC ratio (treated/control) [47] of the same compound?
Its SILAC ratio (treated/control) is 1 (inactive).

What about the SILAC ratio (treated/control) [48] of the same compound?
Its SILAC ratio (treated/control) is 0.96 (inactive).

What about the SILAC ratio (treated/control) [49] of the same compound?
The SILAC ratio (treated/control) was 0.94 (inactive).

What about the SILAC ratio (treated/control) [50] of the same compound?
The SILAC ratio (treated/control) was 1.07 (inactive).

Source: PubChem BioAssay AID588805 (The Scripps Research Institute Molecular Screening Center, 2011)
